What was measured:
[1] = tested on: VEGFR-2; test: VEGFR-2 expression in HUVECs (immunoblot); format: cell-based, human; conditions: FIG. 6A
Description: (§1) The experiments were carried out as described previously (Pan et al., 2010). Briefly, the cells (5×10^5 cells/well) seeded on the 6-well plates and incubated with different concentrations (0.5, 1, and 2 μM) of K20E under normal culture condition for 15 min or 24 h to detect the expression levels of the phosphorylated proteins and the total proteins, respectively. The treated cells were harvested and lysed by using PROPREP® protein extraction solution (#17081; iNtRON Biotechnology, Gyeonggi-Do, South Korea). The cell lysates were further centrifuged at 13000×g at 4° C. for 10 min to collect the supernatants for sodium dodecyl sulfate-polyacrylamide gel electrophoresis (SDS-PAGE). Protein concentration was measured by the Bio-Rad protein assay kit (Bio-Rad, Hercules, Calif., USA) according to the manufacturer's instructions. Aliquots containing 30 μg protein were electrophoresed using 10% slab SDS-PAGE gels and then transferred to PVDF membranes (Immobilon-P™; Millipore, Bedford, Mass., USA). […] The luminescence signal was acquired by Fujifilm LAS-4000 system (San Leandro, Calif., USA) and quantified by using MultiGauge software (v3.0; Fujifilm). […] The relative protein expression was calculated according to the values of the control group (treated with 5% or 10% FBS alone) as 100%.

[2] = tested on: LLC1 lung cancer cells; test: Cell viability assay (MTT assay), growth inhibition of LLC1 cells; format: cell-based, mouse; conditions: normal culture condition
Description: Human umbilical vein endothelial cells (HUVECs; #8000) were purchased from the ScienCell Research Laboratories (San Diego, Calif., USA). The cells were seeded on gelatin-coated culture dishes and grown in the commercial endothelial cell medium (#1001; ScienCell) containing 5% fetal bovine serum (FBS; #0025; ScienCell), 30 μg/mL endothelial cell growth supplements (ECGS; #1052; ScienCell), 100 units/mL penicillin G, and 100 μg/mL streptomycin sulfates (#0503; ScienCell). Cells at passage 3-6 were used for experiments. Mouse Lewis lung carcinoma cell line 1 (LLC1; #60050) was bought from the Food Industry Research and Development Institute (Hsinchu, Taiwan) and cultured in Gibco® Dulbecco's modified Eagle's medium (#12800-017; Invitrogen, Carlsbad, Calif., USA) supplemented with 10% FBS (HyClone, Logan, Utah, USA), 4 mM L-glutamine, 1.5 g/L sodium bicarbonate, 100 units/mL penicillin G, and 100 μg/mL streptomycin. All cells were incubated in a humidified 5% CO2 atmosphere at 37° C. and culture media was changed every 2˜3 days.
The experiments were performed according to our previous study with minor modifications (Pan et al., 2010). […] Absorbance values at 570 nm were determined for each well using 650 nm as the reference wavelength. The absorbance of the control group (treated with 5% or 10% FBS alone) was defined as 100%.

[3] = tested on: MEK1/2-ERK1/2 and AKT-mTOR signaling pathway; test: VEGFR-2 downstream signaling cascades in HUVECs (immunoblot); format: cell-based, human; conditions: activation level rather than total protein level
Description: as §1

[4] = tested on: gelatinases (MMP-2 and MMP-9); test: Gelatinase protein (immunoblot) and activity (gelatin zymography) in HUVECs; format: cell-based, human; conditions: FIG. 6D
Description: as §1, with “instructions.” for “instructions. Aliquots containing 30 μg protein were electrophoresed using 10% slab SDS-PAGE gels and then transferred to PVDF membranes (Immobilon-P™; Millipore, Bedford, Mass., USA).”
The experiments were carried out according to the procedure of previous study with minor modification (Chen et al., 2012). […] The intensity of the digested bands was quantified by using Multi Gauge software. […]

[5] = tested on: angiogenesis in chick chorioallantoic membrane; test: Chick chorioallantoic membrane (CAM) assay; conditions: ex vivo supplementary data, dose-dependent

activity levels of gelatinases (MMP-2 and MMP-9) ([4]; gelatin zymography): evidently decreased | protein levels of gelatinases (MMP-2 and MMP-9) ([4]; immunoblot): evidently decreased
SMILES: COC(=O)/C=C/c1cc(OC(C)=O)c2c(c1)[C@H](C(=O)OC)[C@@H](c1ccc(OC(C)=O)c(OC(C)=O)c1)O2 [K20E]
expression level of intracellular and surface VEGFR-2 [1]: markedly down-regulated | GI50 ([2]; Mus musculus, LLC1 lung cancer cells, data not shown, read-out: GI50 value on LLC1 (concentration that causes 50% growth inhibition)): ~79.4 µM | cell viability of the LLC1 lung cancer cells [2]: significantly inhibit | MEK1/2-ERK1/2 signaling ([3]; FIG. 6B): suppressed | AKT-mTOR signaling pathway ([3]; FIG. 6C): suppressed | angiogenesis in CAM assay [5]: effectively reduce the angiogenesis

— patent US11066378B2, “Caffeic acid derivatives for anti-angiogenesis” (Taipei Medical University, priority 2015, dated 2021)
